Results from patent US20150045266A1, “IONIC LIQUID AS LUBRICATING OIL BASE STOCKS, COBASE STOCKS AND MULTIFUNCTIONAL FUNCTIONAL FLUIDS” (ExxonMobil Research and Engineering Company, priority 2012, published 2015).

Assay: Solubility in di(tridecyl) adipate ester base stock (Esterex A51)
Type: physicochemical
Conditions: Group V ester base stock
Source text: The ionic liquids of Examples 5, 7, 9, 11 and 13 have good viscosity index.

| SMILES | solubility in di(tridecyl) adipate ester base stocks |
| --- | --- |
| CCCCCCCCCCCCCCCC[n+]1ccn(CCCC)c1 [Example 11, 1-butyl-3-hexadecylimidazolium bis(trifluoromethanesulfonyl)imide] | highly soluble |
| CCCCCCCCCC[n+]1ccn(Cc2ccccc2)c1 [Example 13, 1-benzyl-3-decylimidazolium bis(trifluoromethanesulfonyl)imide] | highly soluble |

The next lines start with the values.

| solubility in di(tridecyl) adipate ester base stocks | SMILES |
| --- | --- |
| highly soluble | CCCCCCCCCCCCCCCCn1cc[n+](C)c1 [Example 7, 1-methyl-3-hexadecylimidazolium bis(trifluoromethanesulfonyl)imide] |
| highly soluble | CCCCCCCCCC[n+]1ccn(CCCC)c1 [Example 9, 1-butyl-3-decylimidazolium bis(trifluoromethanesulfonyl)imide] |
| highly soluble | CCCCCCCCCCn1cc[n+](C)c1 [Example 5, 1-methyl-3-decylimidazolium bis(trifluoromethanesulfonyl)imide] |
